Measured values taken from patent US20250145608A1, “KRAS DEGRADING COMPOUNDS COMPRISING ANNULATED 2-AMINO-3-CYANO THIOPHENES” (Boehringer Ingelheim Int'l GmbH Corp., priority 2021, published 2025).
Like-named read-outs stand apart in the source and are kept apart here.

Legend:
Format in all cases: cell-based
KRAS(G12D) = target: T1, KRAS(G12D) (Homo sapiens, UniProt P01116, G12D); test: HiBit degradation assay in GP5d-HiBit-KRAS(G12D) cells (18 h; DC50, Dmax)
T1 construct: introduced immediately downstream of the initiating Methionine codon of the endogenous KRAS locus; host or cells: GP5d-HiBit-KRAS(G12D), a CRISPR knock-in at the endogenous locus
T1 sequence (P01116 1-188 isoform P01116-2 G12D): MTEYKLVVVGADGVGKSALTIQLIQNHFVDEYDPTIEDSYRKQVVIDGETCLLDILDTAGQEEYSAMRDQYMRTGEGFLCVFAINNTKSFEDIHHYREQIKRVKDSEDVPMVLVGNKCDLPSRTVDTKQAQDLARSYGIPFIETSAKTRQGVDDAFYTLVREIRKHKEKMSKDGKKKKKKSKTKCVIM
Description: A HiBit protein detection tag (amino acid sequence […], Seq ID No 1) was introduced immediately downstream of the initiating Methionine codon of the endogenous KRAS locus (Ensembl gene ID ENSG00000133703.7) of GP5d cells (ECACC Cat. No. 95090715) by CRISPR-based genome engineering using a KRAS(G12D) mutant donor construct encoding the HiBit tag. […] Correct modification of the KRAS locus was assessed by PCR-based genotyping and Sanger sequencing of the isolated PCR products. The resulting cell line is referred to as GP5d-HiBit-KRAS(G12D).
To assess PROTAC-mediated degradation of KRAS(G12D), GP5d-HiBit-KRAS(G12D) cells were seeded at 25000 cells per well in 100 μL Dulbecco's Modified Eagle medium (Sigma cat. no. D6429) supplemented with 10% fetal calf serum into white bottom opaque 96 well plates (Perkin Elmer cat no. 5680). Plates were incubated at 37° C., 5% CO2 in a humidified incubator over night to allow the cells to adhere. […] Plates were further incubated at 37° C. for 18 hours. Following incubation, 100 μL per well Promega Nano-Glo HiBit lytic detection reagent mix (Promega Nano-Glo HiBit Lytic Detection System #N3050), prepared according to the manufacturer's instructions in the kit, were added. To allow for adequate cell lysis, plates were incubated on an orbital shaker for 15 min and further incubated 30 min at room temperature. Upon completion of cell lysis, luminescence was measured using an Envision plate reader using the Ultrasensitive Luminescence Protocol for 96 well plates. Luminescence levels were normalized by the values obtained with DMSO-treated samples and plotted as percent of DMSO control. DC50 values were computed using a four parametric logistic model. Dmax values represent the maximal extent of degradation observed and is stated as percent of control (% Ctrl.) treatments. DC50 and Dmax are reported in Table 64 for representative compounds of the invention.

NCI-H358 cells = test: NCI-H358 CTG proliferation assay (120 h) (NSCLC, G12C); details: Homo sapiens
Description: NCI-H358 CTG Proliferation Assay (120 h) (NSCLC, G12C)
NCI-H358 cells (ATCC No. CRL-5807) are dispensed into white bottom opaque 96 well plates (Perkin Elmer cat no. 5680) at a density of 2000 cells per well in 100 μL RPMI-1640 ATCC-Formulation (Gibco #A10491)+10% FCS (fetal calf serum) (assay 1) or into black 384-well plates, flat and clear bottom (Greiner, PNr. 781091) at a density of 200 cells per well in 60 μl RPMI-1640 ATCC-Formulation (Gibco #A10491)+10% FCS (fetal calf serum) (assay 2). […] Compounds (10 mM stock in DMSO) are added at logarithmic dose series using the HP Digital Dispenser D300 (Tecan) (assay 1) or the ECHO acoustic liquid handler system (Beckman Coulter) (assay 2), normalizing for added DMSO and including DMSO controls. For the TO time point measurement, untreated cells are analyzed at the time of compound addition. Plates are incubated for 120 h, and cell viability is measured using CellTiter-Glo luminescent cell viability reagent (Promega product code G7570). Viability (stated as percent of control) is defined as relative luminescence units RLU of each well divided by the RLU of cells in DMSO controls. IC50 values are determined from viability measurements by non-linear regression using a four parameter model.

GP5d cells = test: GP5d cell proliferation assay (colorectal cancer, G12D), 5 days; details: Homo sapiens, 120 h
Description: GP5d Cell Proliferation Assay (Colorectal Cancer, G12D)
(§1) GP5d cells (ECACC 95090715) are dispensed into white bottom opaque 96 well plates at a density of 5000 cells per well in 100 μL DMEM (BioWhittaker, Cat #BE12-605F) supplemented with 10% FCS. […] Compounds (10 mM stock in DMSO) are added at logarithmic dose series using the HP Digital Dispenser D300 (Tecan), normalizing for added DMSO. For the TO time point measurement, untreated cells are analysed at the time of compound addition. Plates are incubated for 5 days, and cell viability is measured using CellTiter-Glo luminescent cell viability reagent (Promega, Cat. No G7570). Viability (stated as percent of control) is defined as relative luminescence units RLU of each well divided by the RLU of cells in DMSO controls. IC50 values were computed from relative viability values using a four parametric logistic model.

SW620 cells = test: SW620 cell proliferation assay (colorectal cancer, G12V), 5 days; details: Homo sapiens, SW-620, 120 h
Description: SW620 Cell Proliferation Assay (Colorectal Cancer, G12V)
as §1, with “SW620” for “GP5d”, “(ATCC CCL-227)” for “(ECACC 95090715)”, “plates (Perkin Elmer cat no. 5680)” for “plates”, “2000” for “5000”

[1] = assay 2, read-out: H358 (assay 2) IC50
[2] = assay 1, read-out: H358 (assay 1) IC50

| Structure (SMILES) | DC50 (KRAS(G12D)) | Dmax 18 h (KRAS(G12D)) | IC50 (NCI-H358 cells; [1]) | IC50 (GP5d cells) | IC50 (SW620 cells) | IC50 (NCI-H358 cells; [2]) |
| --- | --- | --- | --- | --- | --- | --- |
| Cc1ncsc1-c1ccc([C@@H](NC(=O)[C@@H]2C[C@@H](O)CN2C(=O)[C@@H](C(C)C)n2cc(OCCCN3CCCN(c4nccc(-c5noc([C@@]6(C)CCCc7sc(N)c(C#N)c76)n5)n4)[C@@H](C)C3)nn2)[C@H](O)C(C)C)cc1 (single isomer, unassigned) [I-42] | 462 nM | 74 % Ctrl | 1920 nM |  |  |  |
| Cc1ncsc1-c1ccc(CNC(=O)[C@@H]2C[C@@H](O)CN2C(=O)C(c2cc(OCCCN3CCCN(c4ccnc(-c5noc([C@@]6(C)CCCc7sc(N)c(C#N)c76)n5)n4)[C@@H](C)C3)no2)C(C)C)cc1 (some centres unmarked) [I-21] | 41.1 nM | 90 % Ctrl | 81.3 nM |  |  |  |
| Cc1ncsc1-c1ccc(CNC(=O)[C@@H]2C[C@@H](O)CN2C(=O)C(c2cc(OCCOCCN3CCCN(c4nccc(-c5noc([C@@]6(C)CCCc7sc(N)c(C#N)c76)n5)n4)[C@@H](C)C3)no2)C(C)C)cc1 (some centres unmarked) [I-14] | 76 nM | 80 % Ctrl | 843 nM |  |  |  |
| Cc1ncsc1-c1ccc(CNC(=O)[C@@H]2C[C@@H](O)CN2C(=O)C(c2cc(OCCCCN3CCCN(c4ccnc(-c5noc([C@@]6(C)CCCc7sc(N)c(C#N)c76)n5)n4)[C@@H](C)C3)no2)C(C)C)cc1 (some centres unmarked) [I-22] | 48.8 nM | 92 % Ctrl | 97.5 nM |  |  |  |
| Cc1ncsc1-c1ccc(CNC(=O)[C@@H]2C[C@@H](O)CN2C(=O)C(c2cc(OCCCCN3CCCN(c4nccc(-c5cc([C@@]6(C)CCCc7sc(N)c(C#N)c76)sn5)n4)[C@@H](C)C3)no2)C(C)C)cc1 (some centres unmarked) [I-12] | 42.1 nM | 86 % Ctrl | 118 nM | 106 nM | 109 nM | 407 nM |
| Cc1ncsc1-c1ccc([C@@H](NC(=O)[C@@H]2C[C@@H](O)CN2C(=O)[C@@H](C(C)C)n2cc(OCCCCN3CCCN(c4nccc(-c5noc([C@@]6(C)CCCc7sc(N)c(C#N)c76)n5)n4)[C@@H](C)C3)nn2)[C@H](C)O)cc1 (single isomer, unassigned) [I-40] | 970 nM | 61 % Ctrl | 2720 nM |  |  |  |
| CC(C)c1ccc(CNC(=O)[C@@H]2C[C@@H](O)CN2C(=O)C(c2cc(OCCCCN3CCCN(c4nccc(-c5noc([C@@]6(C)CCCc7sc(N)c(C#N)c76)n5)n4)[C@@H](C)C3)no2)C(C)C)cc1 (some centres unmarked) [I-23] | 76.7 nM | 82 % Ctrl | 527 nM | 857 nM | 267 nM | 1150 nM |
| Cc1cc(CNC(=O)[C@@H]2C[C@@H](O)CN2C(=O)C(c2cc(OCCCCN3CCCN(c4nccc(-c5noc([C@@]6(C)CCCc7sc(N)c(C#N)c76)n5)n4)[C@@H](C)C3)no2)C(C)C)c(F)cc1-c1scnc1C (some centres unmarked) [I-13] | 45.2 nM | 87 % Ctrl | 336 nM | 131 nM | 206 nM | 468 nM |
| Cc1ncsc1-c1ccc([C@@H](NC(=O)[C@@H]2C[C@@H](O)CN2C(=O)[C@@H](C(C)C)n2cc(OCCCCN3CCCN(c4nccc(-c5noc([C@@]6(C)CCCc7sc(N)c(C#N)c76)n5)n4)[C@@H](C)C3)nn2)[C@H](O)C(C)C)cc1 (single isomer, unassigned) [I-44] | 49.7 nM | 88 % Ctrl | 604 nM |  |  |  |

Now those with a lower DC50 (KRAS(G12D)), led by results:

| DC50 (KRAS(G12D)) | Dmax 18 h (KRAS(G12D)) | IC50 (NCI-H358 cells; [1]) | IC50 (GP5d cells) | IC50 (SW620 cells) | IC50 (NCI-H358 cells; [2]) | Structure (SMILES) |
| --- | --- | --- | --- | --- | --- | --- |
| 6.7 nM | 93 % Ctrl |  | 23.5 nM | 29 nM | 346 nM | CC(C)C(C(=O)N1C[C@H](O)C[C@H]1C(=O)NCc1ccc(-n2ccnc2)cc1)c1cc(OCCCCN2CCCN(c3nccc(-c4noc([C@@]5(C)CCCc6sc(N)c(C#N)c65)n4)n3)[C@@H](C)C2)no1 (some centres unmarked) [I-19] |
| 35.1 nM | 57 % Ctrl | 349 nM | ≥ 9000 nM | 9000 nM | 712 nM | Cc1ncsc1-c1ccc(CNC(=O)[C@@H]2C[C@@H](O)CN2C(=O)C(c2cc(OCCCCN3CCN(c4nccc(-c5noc([C@@]6(C)CCCc7sc(N)c(C#N)c76)n5)n4)[C@@H](C)C3)no2)C(C)C)cc1 (some centres unmarked) [I-11] |
| 6.5 nM | 92 % Ctrl | 58.4 nM | 13.8 nM | 47.9 nM | 117 nM | Cc1ncsc1-c1ccc(CNC(=O)[C@@H]2C[C@@H](O)CN2C(=O)C(c2cc(OCCCCN3CCCN(c4nccc(-c5noc([C@@]6(C)CCCc7sc(N)c(C#N)c76)n5)n4)[C@@H](C)C3)no2)C(C)C)cc1F (some centres unmarked) [I-5] |
| 3.3 nM | 93 % Ctrl | 89.5 nM |  |  |  | CC(C)C(C(=O)N1C[C@H](O)C[C@H]1C(=O)NCc1ccc(-n2cncn2)cc1)c1cc(OCCCCN2CCCN(c3nccc(-c4noc([C@@]5(C)CCCc6sc(N)c(C#N)c65)n4)n3)[C@@H](C)C2)no1 (some centres unmarked) [I-17] |
| 2.7 nM | 91 % Ctrl | 60.7 nM | 6.14 nM | 13.1 nM | 66 nM | Cc1ncsc1-c1ccc(CNC(=O)[C@@H]2C[C@@H](O)CN2C(=O)C(c2cc(OCCCCN3CCCN(c4nccc(-c5noc([C@@]6(C)CCCc7sc(N)c(C#N)c76)n5)n4)[C@@H](C)C3)no2)C(C)C)cc1 (some centres unmarked) [I-3] |
| 15.4 nM | 91 % Ctrl | 203 nM | 39.3 nM | 115 nM | 265 nM | Cc1cc(CNC(=O)[C@@H]2C[C@@H](O)CN2C(=O)C(c2cc(OCCCCN3CCCN(c4nccc(-c5noc([C@@]6(C)CCCc7sc(N)c(C#N)c76)n5)n4)[C@@H](C)C3)no2)C(C)C)ccc1-c1scnc1C (some centres unmarked) [I-10] |
| 9.8 nM | 90 % Ctrl | 122 nM |  |  |  | Cc1ncsc1-c1ccc(CNC(=O)[C@@H]2C[C@@H](O)CN2C(=O)C(c2cc(OC/C=C/CN3CCCN(c4nccc(-c5noc([C@@]6(C)CCCc7sc(N)c(C#N)c76)n5)n4)[C@@H](C)C3)no2)C(C)C)cc1 (some centres unmarked) [I-15] |
| 6.4 nM | 94 % Ctrl | 96.5 nM | 22.2 nM | 27.3 nM | 151 nM | Cc1ncsc1-c1ccc(CNC(=O)[C@@H]2C[C@@H](O)CN2C(=O)C(c2cc(OCCCN3CCCN(c4nccc(-c5noc([C@@]6(C)CCCc7sc(N)c(C#N)c76)n5)n4)[C@@H](C)C3)no2)C(C)C)cc1 (some centres unmarked) [I-1] |
| 7.7 nM | 87 % Ctrl | 57 nM |  |  |  | Cc1ncsc1-c1ccc([C@H](CCOP(=O)(O)O)NC(=O)[C@@H]2C[C@@H](O)CN2C(=O)[C@H](C(C)C)n2cc(OCCCCN3CCCN(c4nccc(-c5noc([C@@]6(C)CCCc7sc(N)c(C#N)c76)n5)n4)[C@@H](C)C3)nn2)cc1 [I-39] |
